{
  "source": "patent US20200268702A1",
  "about": "“METHODS OF TREATING […]” (Amarin Pharmaceuticals Ireland Limited, priority 2013, published 2020)",
  "key": {"[1]": {"test_system": "patients with fasting triglyceride levels ≥200 mg/dl and <500 mg/dl despite statin therapy", "experiment": "ANCHOR study: 12-week placebo-controlled study of >96% E-EPA on statin therapy, metabolic syndrome subgroup", "type": "in vivo, human", "method": "A multi-center, placebo-controlled, randomized, double-blind, 12-week study was performed to evaluate the efficacy and safety of >96% E-EPA in patients with fasting triglyceride levels ≥200 mg/dl and <500 mg/dl despite statin therapy (the mean of two qualifying entry values needed to be ≥185 mg/dl and at least one of the values needed to be ≥200 mg/dl). The primary objective of the study was to determine the efficacy of >96% E-EPA 2 g daily and 4 g daily, compared to placebo, in lowering fasting TG levels in patients with high risk for cardiovascular disease and with fasting TG levels ≥200 mg/dL and <500 mg/dL, despite treatment to LDL-C goal on statin therapy.\nThe population for this study was men and women >18 years of age with a body mass index ≤45 kg/m^2 with fasting TG levels greater than or equal to 200 mg/dl and less than 500 mg/dl and on a stable does of statin therapy (with or without ezetimibe). The statin was atorvostatin, rosuvastatin or simvastatin. The dose of statin must have been stable for ≥4 weeks prior to the LDL-C/TG baseline qualifying measurement for randomization. The statin dose was optimized such that the patients are at their LDL-C goal at the LDL-C/TG baseline qualifying measurements. The same statin at the same dose was continued until the study ended.\nApproximately 702 patients were randomized at approximately 80 centers in the U.S. The study was a 18- to 20-week, Phase 3, multi-center study consisting of 2 study periods: (1) A 6- to 8-week screening period that included a diet and lifestyle stabilization, a non-statin lipid-altering treatment washout, and an LDL-C and TG qualifying period and (2) A 12-week, double-blind, randomized, placebo-controlled treatment period.\nAfter confirmation of qualifying fasting LDL-C and TG values, eligible patients entered a 12-week, randomized, double-blind treatment period. At Visit 4 (Week 0), patients were randomly assigned to 1 of the following treatment groups: • >96% E-EPA 2 g daily, • >96% E-EPA 4 g daily, or • Placebo.\n>96% E-EPA was provided in 1 g liquid-filled, oblong, gelatin capsules. The matching placebo capsule was filled with light liquid paraffin and contained 0 g of >96% E-EPA. >96% E-EPA capsules were to be taken with food (i.e. with or at the end of a meal).\nDuring the double-blind treatment period, patients were to take 2 capsules (>96% E-EPA or matching placebo) in the morning and 2 capsules in the evening for a total of 4 capsules per day. • Patients in the >96% E-EPA 2 g/day treatment group received 1>96% E-EPA 1 g capsule and 1 matching placebo capsule in the morning and in the evening. • Patients in the >96% E-EPA 4 g/day treatment group received 2>96% E-EPA 1 g capsules in the morning and evening.\nThe primary efficacy variable for the double-blind treatment period was percent change in TG from baseline to Week 12 endpoint. […]"}, "[2]": {"test_system": "subjects with Age-Associated Memory Impairment", "experiment": "Safety and tolerability (adverse events), 6-week AAMI study", "type": "in vivo, human", "method": "Ninety-four subjects were randomized into one of six groups: 1 g E-EPA daily (n=23), 2 g E-EPA daily (n=24), 4 g E-EPA daily (n=24), 1 g placebo daily (n=7), 2 g placebo daily (n=8), and 4 g placebo daily (n=8).\nAll randomized subjects that received at least 1 dose of study medication were included in the Safety Population.\nSafety evaluations were based on the safety population. Safety and tolerability were assessed in terms of AEs, vital signs, 12-lead ECG, clinical laboratory data, medical history, and study drug compliance. Safety and tolerability data were presented by treatment group."}, "[3]": {"conditions": "4 g/day, week 12, listed as IPE"}},
  "data": [
    {"smiles": "CC/C=C\\C/C=C\\C/C=C\\C/C=C\\C/C=C\\CCCC(=O)OCC", "note": "[AMR101, ethyl eicosapentaenoate]", "values": [
      {"measurement": "Apo B, Change from Baseline, %", "setting": "[1]; 2 g/day, week 12", "value": 3.3, "unit": "%"},
      {"measurement": "Apo B, End of Treatment, median (IQR)", "setting": "[1]; 2 g/day, week 12", "value": "95.0 (23.00) mg/dL"},
      {"measurement": "Apo B, Median % Change From Baseline vs Placebo", "setting": "[1]; 2 g/day, week 12", "value": "−2.6", "unit": "%"},
      {"measurement": "HDL-C, Change from Baseline, %", "setting": "[1]; 2 g/day, week 12", "value": 2.2, "unit": "%"},
      {"measurement": "HDL-C, End of Treatment, median (IQR)", "setting": "[1]; 2 g/day, week 12", "value": "38.0 (12.00) mg/dL"},
      {"measurement": "HDL-C, Median % Change From Baseline vs Placebo", "setting": "[1]; 2 g/day, week 12", "value": "−1.4", "unit": "%"},
      {"measurement": "LDL-C, Change from Baseline, %", "setting": "[1]; 2 g/day, week 12", "value": 2.5, "unit": "%"},
      {"measurement": "LDL-C, End of Treatment, median (IQR)", "setting": "[1]; 2 g/day, week 12", "value": "87.0 (28.00) mg/dL"},
      {"measurement": "LDL-C, Median % Change From Baseline vs Placebo", "setting": "[1]; 2 g/day, week 12", "value": "−2.4", "unit": "%"},
      {"measurement": "Non-HDL-C, Change from Baseline, %", "setting": "[1]; 2 g/day, week 12", "value": 2.7, "unit": "%"},
      {"measurement": "Non-HDL-C, End of Treatment, median (IQR)", "setting": "[1]; 2 g/day, week 12", "value": "134.0 (44.00) mg/dL"},
      {"measurement": "Non-HDL-C, Median % Change From Baseline vs Placebo", "setting": "[1]; 2 g/day, week 12", "value": "−4.4", "unit": "%"},
      {"measurement": "TG, Change from Baseline, %", "setting": "[1]; 2 g/day, week 12", "value": "−5.8", "unit": "%"},
      {"measurement": "TG, End of Treatment, median (IQR)", "setting": "[1]; 2 g/day, week 12", "value": "246.0 (117.00) mg/dL"},
      {"measurement": "TG, Median % Change From Baseline vs Placebo", "setting": "[1]; 2 g/day, week 12", "value": "−10.3", "unit": "%"},
      {"measurement": "hsCRP, Change from Baseline, %", "setting": "[1]; 2 g/day, week 12", "value": 8.4, "unit": "%"},
      {"measurement": "hsCRP, End of Treatment, median (IQR)", "setting": "[1]; 2 g/day, week 12", "value": "2.5 (3.35) mg/L"},
      {"measurement": "hsCRP, Median % Change From Baseline vs Placebo", "setting": "[1]; 2 g/day, week 12", "value": "−7.6", "unit": "%"},
      {"measurement": "Apo B, Change from Baseline, %", "setting": "[1]; 4 g/day, week 12", "value": "−2.2", "unit": "%"},
      {"measurement": "Apo B, End of Treatment, median (IQR)", "setting": "[1]; 4 g/day, week 12", "value": "89.0 (26.00) mg/dL"},
      {"measurement": "HDL-C, Change from Baseline, %", "setting": "[1]; 4 g/day, week 12", "value": 0.0, "unit": "%"},
      {"measurement": "HDL-C, End of Treatment, median (IQR)", "setting": "[1]; 4 g/day, week 12", "value": "36.0 (12.00) mg/dL"},
      {"measurement": "HDL-C, Median % Change From Baseline vs Placebo", "setting": "[1]; 4 g/day, week 12", "value": "−4.0", "unit": "%"},
      {"measurement": "LDL-C, Change from Baseline, %", "setting": "[1]; 4 g/day, week 12", "value": 2.1, "unit": "%"},
      {"measurement": "LDL-C, End of Treatment, median (IQR)", "setting": "[1]; 4 g/day, week 12", "value": "83.0 (31.00) mg/dL"},
      {"measurement": "Non-HDL-C, Change from Baseline, %", "setting": "[1]; 4 g/day, week 12", "value": "−5.3", "unit": "%"},
      {"measurement": "Non-HDL-C, End of Treatment, median (IQR)", "setting": "[1]; 4 g/day, week 12", "value": "121.0 (37.00) mg/dL"},
      {"measurement": "TG, Change from Baseline, %", "setting": "[1]; 4 g/day, week 12", "value": "−17.4", "unit": "%"},
      {"measurement": "TG, End of Treatment, median (IQR)", "setting": "[1]; 4 g/day, week 12", "value": "221.0 (93.50) mg/dL"},
      {"measurement": "hsCRP, Change from Baseline, %", "setting": "[1]; 4 g/day, week 12", "value": "−3.4", "unit": "%"},
      {"measurement": "hsCRP, End of Treatment, median (IQR)", "setting": "[1]; 4 g/day, week 12", "value": "2.0 (3.00) mg/L"},
      {"measurement": "Apo B, Median % Change From Baseline vs Placebo", "setting": "[1]; [3]", "value": "−8.8", "unit": "%"},
      {"measurement": "LDL-C, Median % Change From Baseline vs Placebo", "setting": "[1]; [3]", "value": "−5.2", "unit": "%"},
      {"measurement": "Non-HDL-C, Median % Change From Baseline vs Placebo", "setting": "[1]; [3]", "value": "−13.5", "unit": "%"},
      {"measurement": "TG, Median % Change From Baseline vs Placebo", "setting": "[1]; [3]", "value": "−21.7", "unit": "%"},
      {"measurement": "hsCRP, Median % Change From Baseline vs Placebo", "setting": "[1]; [3]", "value": "−23.0", "unit": "%"},
      {"measurement": "nausea Probably Related to the study drug", "setting": "[2]; 1 g", "value": "One"},
      {"measurement": "nausea Possibly Related to the study drug, subjects", "setting": "[2]; 1 g cohort", "value": "two"},
      {"measurement": "nausea Possibly Related to the study drug, subjects", "setting": "[2]; 2 g cohort", "value": "one"},
      {"measurement": "SAE reported", "setting": "[2]; 2 g treatment group", "value": "One"},
      {"measurement": "subjects discontinued due to TEAEs", "setting": "[2]; 2 g treatment group", "value": 2, "unit": "subjects"},
      {"measurement": "Serious Adverse Event (worsening epigastric chest pain), relation to study drug", "setting": "[2]; 2 g, one subject", "value": "unrelated to the study drug"},
      {"measurement": "diarrhea Probably Related to the study drug", "setting": "[2]; 4 g", "value": "Another subject"},
      {"measurement": "nausea Possibly Related to the study drug, subjects", "setting": "[2]; 4 g cohort", "value": "two"},
      {"measurement": "TEAEs Definitely Related to the study drug", "setting": "[2]; all groups", "value": "No TEAEs were Definitely Related"},
      {"measurement": "deaths during the study", "setting": "[2]; all groups", "value": "no deaths"},
      {"measurement": "treatment emergent AEs (TEAEs) reported", "setting": "[2]; ethyl-EPA treatment groups (1 g, 2 g, 4 g), placebo groups 34 events", "value": 105, "unit": "events"}
    ]}
  ]
}
